These results are taken from ChEMBL document CHEMBL1145452, “In vitro structure-activity relationship and in vivo characterization of 1-(aryl)-3-(4-(amino)benzyl)urea transient receptor potential vanilloid 1 antagonists” (J Med Chem, 2007).

The target of series [1] is Transient receptor potential cation channel subfamily V member 1 (Homo sapiens, UniProt Q8NER1). Description: Antagonist activity at human TRPV1 receptor by calcium influx assay. The class given is functional.
The subject of series [2] is Liver microsomes. Description: Stability in rat liver microsomes at 0.5 uM after 30 mins. The series is classed as ADME, Microsome. As to conditions: 0.5 h.
The subject of series [3] is Liver microsomes. Description: Stability in human liver microsomes at 0.5 uM after 30 mins. The series is classed as ADME, Microsome. As to conditions: 0.5 h. A general note: Liver microsomes are vesicles of endoplasmic reticulum, rich in cytochrome P450 enzymes.
Series [4] is described as follows: Cmax in rat at 10 umol/kg, po. As to conditions: in vivo. Also noted: dose 10 umol/kg, route oral. The series is classed as ADME, organism-based.
A further series relates to Rattus norvegicus. Description: Effect on CFA-induced thermal hyperalgesia in po dosed rat. The series is classed as functional.
Series [5] is described as follows: Half life in rat at 10 umol/kg. The settings on record: in vivo. The series is classed as ADME, organism-based.
A short description of series [6]: Oral bioavailability in rat at 10 umol/kg, po. The class given is ADME, organism-based. As to conditions: in vivo.
Series [7] is described as follows: Oral bioavailability in dog. The series is classed as ADME, organism-based, Canis lupus familiaris. As to conditions: in vivo.
A short description of series [8]: Volume of distribution in rat at 10 umol/kg. The class given is ADME, organism-based. The settings on record: in vivo, read-out: Vbeta.
Series [9] can be described thus: Plasma clearance in rat at 10 umol/kg. The series is classed as ADME, organism-based.
A further series is filed under the species Homo sapiens. Description: Protein binding in human plasma. The settings on record: read-out: PPB (converted).
Series [10] is described as follows: Protein binding in rat plasma. The series is classed as ADME, cell-free. The settings on record: read-out: PPB (converted).
The nature of series [11]: Binding affinity to sodium channel. More on the design: species or system Homo sapiens.
The next series deals with T1, Adenosine receptor A3 (Homo sapiens, UniProt P0DMS8).
T1 sequence (P0DMS8 whole entry): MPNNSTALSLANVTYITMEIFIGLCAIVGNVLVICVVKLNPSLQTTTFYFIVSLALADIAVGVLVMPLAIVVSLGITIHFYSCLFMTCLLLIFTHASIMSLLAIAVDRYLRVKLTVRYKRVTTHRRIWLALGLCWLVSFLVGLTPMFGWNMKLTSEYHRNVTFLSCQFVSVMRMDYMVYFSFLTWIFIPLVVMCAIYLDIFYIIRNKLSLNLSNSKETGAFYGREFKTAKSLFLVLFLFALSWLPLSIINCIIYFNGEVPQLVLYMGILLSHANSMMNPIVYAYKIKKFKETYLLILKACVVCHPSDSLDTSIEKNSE
Description: Binding affinity to adenosine A3 receptor.

Series [12] can be described thus: Aqueous solubility at pH 2.0. The series is classed as physicochemical.
Another series addresses Translocator protein (Homo sapiens, UniProt P30536). Description: Binding affinity to peripheral benzodiazepine receptor.
Series [13] can be described thus: Aqueous solubility at pH 6.8. The class given is physicochemical. The settings on record: buffer.

Values after ≈ are worked out from the molar mass of the structure shown.

Chain of Transient receptor potential cation channel subfamily V member 1 (Q8NER1 whole entry): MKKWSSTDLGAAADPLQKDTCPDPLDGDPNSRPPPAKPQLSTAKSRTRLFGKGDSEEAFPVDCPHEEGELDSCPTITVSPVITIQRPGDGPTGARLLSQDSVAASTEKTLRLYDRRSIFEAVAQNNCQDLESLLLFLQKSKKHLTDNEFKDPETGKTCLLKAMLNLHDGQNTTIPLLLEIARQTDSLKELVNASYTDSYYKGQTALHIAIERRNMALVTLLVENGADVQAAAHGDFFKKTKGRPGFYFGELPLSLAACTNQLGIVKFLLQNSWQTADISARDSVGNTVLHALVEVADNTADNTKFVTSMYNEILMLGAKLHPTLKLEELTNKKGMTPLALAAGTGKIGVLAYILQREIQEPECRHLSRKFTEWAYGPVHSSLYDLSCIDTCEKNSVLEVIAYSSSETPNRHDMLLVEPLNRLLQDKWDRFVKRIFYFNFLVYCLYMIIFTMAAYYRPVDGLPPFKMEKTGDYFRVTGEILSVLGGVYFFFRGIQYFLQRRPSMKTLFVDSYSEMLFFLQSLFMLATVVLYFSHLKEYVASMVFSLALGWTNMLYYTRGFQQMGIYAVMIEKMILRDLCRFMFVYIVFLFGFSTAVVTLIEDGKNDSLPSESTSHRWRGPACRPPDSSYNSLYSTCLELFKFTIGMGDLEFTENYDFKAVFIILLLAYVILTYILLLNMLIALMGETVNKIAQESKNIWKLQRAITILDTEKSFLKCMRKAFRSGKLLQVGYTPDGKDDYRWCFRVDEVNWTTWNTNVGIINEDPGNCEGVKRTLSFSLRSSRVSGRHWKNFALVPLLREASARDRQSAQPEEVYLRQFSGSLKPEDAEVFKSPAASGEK
Chain of Translocator protein (P30536 whole entry): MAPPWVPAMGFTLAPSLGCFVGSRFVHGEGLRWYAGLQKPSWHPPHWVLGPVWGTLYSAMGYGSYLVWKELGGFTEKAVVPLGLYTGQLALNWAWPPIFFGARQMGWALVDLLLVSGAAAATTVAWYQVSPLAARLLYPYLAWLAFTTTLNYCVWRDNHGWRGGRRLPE

The IC50 is the midpoint of a concentration-inhibition curve. `O=C(NCc1ccc(N2CCCCC2)cc1)Nc1cccc2cnccc12`: the IC50 in [1] stood at 7.3 nM.
On to `Cc1cc2c(NC(=O)NCc3ccc(N4Cc5ccccc5C4)c(F)c3)cccc2cn1`, for which, in [1], the IC50 is 7360 nM.
Take `O=C(NCc1cc(F)c(N2CCOCC2)c(F)c1)Nc1cccc2cnccc12`: in series [1], the IC50 turned out to be 9.3 nM.
On to `Nc1cc2c(NC(=O)NCc3ccc(N4CCCCCC4)cc3)cccc2cn1`, for which the IC50 in [1] came out at 9.8 nM.
For `Cn1c2ccccc2c2cc(CNC(=O)Nc3cccc4[nH]ncc34)ccc21`, in series [1], the IC50 worked out at 902 nM.
With `O=C(NCc1ccc(N2[C@@H]3CCC[C@H]2CC3)c(Br)c1)Nc1cccc2[nH]ncc12`, the IC50 in series [1] is 43.2 nM.
`O=C(NCc1ccc(C(F)(F)F)cc1)Nc1cccc2cnccc12`: the Stability in the series on Liver microsomes [2] was determined as 383 pmol/min/mg; with Liver microsomes [3] it was 135 pmol/min/mg. Besides, the IC50 in series [1] came out at 2.1 nM.
`O=C(NCc1ccc(N2[C@@H]3CCC[C@H]2CC3)cc1C(F)(F)F)Nc1cccc2[nH]ncc12`: in series [1], the concentration for half-maximal inhibition (IC50) worked out at 54.5 nM.
On the same count and under the same terms, with `O=C(NCc1ccc(N2CCOCC2)cc1)Nc1cccc2cnc(Cl)cc12` the figure was 156 nM.
Take `CN(C)c1ccc(CNC(=O)Nc2cccc3cnccc23)cc1`: the IC50 in series [1] came to 157 nM.
Take `O=C(NCc1ccc(N2[C@@H]3CCC[C@H]2CC3)cc1)Nc1cccc2[nH]ncc12`: in [1], the IC50 came out at 18 nM.
Regarding `O=C1C[C@H]2CC[C@@H](C1)N2c1cc(F)c(CNC(=O)Nc2cccc3[nH]ncc23)cc1F`, the IC50 in [1] came to 157 nM.
For the molecule `O=C(NCc1ccc(N2[C@@H]3CCC[C@H]2CC3)cc1)Nc1cccc2cnccc12`, the Stability in the series with Liver microsomes [2] is recorded as 247 pmol/min/mg; with Liver microsomes [3], 818 pmol/min/mg. Moreover, the IC50 in [1] turned out to be 3.3 nM.
In the case of `O=C(NCc1ccc(N2CCCCCCC2)cc1)Nc1cccc2cnccc12`, in series [1], the IC50 came out at 4.7 nM.
One may read the Cmax as the peak of the concentration-time curve. The ED50 is the dose that gives a 50% effect, or the effect in half of the subjects. The half-life is the time in which the quantity being followed falls by half. A high value points to slow decline. Usually bioavailability stands for dose-corrected exposure relative to a reference, in per cent. The term clearance denotes the volume of plasma or blood freed of the substance per unit of time. Read a high clearance as a high capacity for elimination. In the case of `O=C(NCc1ccc(N2CCCCCC2)c(F)c1)Nc1cccc2cnccc12`, in [4], the Cmax worked out at 150 ng/mL. The Stability with Liver microsomes [2] was 366 pmol/min/mg; in the series on Liver microsomes [3] it was 1223 pmol/min/mg. The molecule also showed an ED50 in the series on Rattus norvegicus of 30 µmol/kg. For the same molecule, the half-life in [5] was 0.69 h. For the same molecule, the bioavailability in series [6] worked out at 10%; in series [7], 18%. Also, the Vd in series [8] came to 1.8 L/kg. Moreover, in [1], the IC50 stood at 2.8 nM. In series [9], the clearance is 30 mL/min/kg.
Consider `O=C(NCc1ccc(N2CCCCCC2)cc1)Nc1cccc2cnccc12`, for which, in series [1], the IC50 came out at 3.3 nM.
As for `O=C(NCc1ccc(N2CCCCCC2)cc1C(F)(F)F)Nc1cccc2cnccc12`, the IC50 in series [1] is 5.7 nM.
`Cn1ncc2c(NC(=O)NCc3ccc(N4[C@@H]5CCC[C@H]4CC5)cc3Cc3ccccc3)cccc21`: in series [1], the IC50 came out at 19 nM.
As to `O=C(NCc1cc(F)c(N2[C@@H]3CCC[C@H]2CC3)c(F)c1)Nc1cccc2[nH]ncc12`, the IC50 in series [1] is 12.6 nM.
For the molecule `O=C(NCc1ccc(N2CCCCCC2)cc1C(F)(F)F)Nc1cccc2[nH]ncc12`, in series [1], the IC50 was 133 nM.
The same measure, in the same setting: with `Cc1cc(CNC(=O)Nc2cccc3[nH]ncc23)ccc1N1[C@@H]2CCC[C@H]1CC2` the figure was 19.8 nM; with `CC(C)c1cc(N2[C@@H]3CCC[C@H]2CC3)ccc1CNC(=O)Nc1cccc2[nH]ncc12`, 35.3 nM.
For `O=C(NCc1ccc(N2CCCCCC2)cc1Cl)Nc1cccc2[nH]ncc12`, in series [1], the IC50 was determined as 190 nM.
Same read-out and setting: then `CC(C)(C)CCc1cc(N2[C@@H]3CCC[C@H]2CC3)ccc1CNC(=O)Nc1cccc2[nH]ncc12`, with 10.3 nM.
As for `O=C(NCc1cc(F)c(N2CCCCCC2)c(F)c1)Nc1cccc2[nH]ncc12`, the IC50 in series [1] turned out to be 39.3 nM.
Consider `O=C(NCc1ccc(N2CCCCCC2)cc1Cl)Nc1cccc2cnccc12`, for which the IC50 in series [1] is 5.2 nM.
Turning to `CC1CN(c2ccc(CNC(=O)Nc3cccc4cnccc34)cc2)CC(C)O1` (stereo not drawn), the half-inhibitory concentration (IC50) in series [1] is 258 nM.
On the same count and under the same terms, with `CCN1CCc2cc(CNC(=O)Nc3cccc4[nH]ncc34)ccc21` the figure was 285 nM; with `Cc1cc(N2[C@@H]3CCC[C@H]2CC3)ccc1CNC(=O)Nc1cccc2[nH]ncc12`, 29 nM.
With `CC1CCN(c2ccc(CNC(=O)Nc3cccc4cnccc34)cc2)CC1`, the IC50 in [1] was 9.3 nM.
As for `O=C(NCc1ccc(N2[C@@H]3CCC[C@H]2CC3)c(F)c1F)Nc1cccc2[nH]ncc12`, in [1], the IC50 worked out at 25.5 nM.
Turning to `Cc1cc2c(NC(=O)NCc3ccc(N4CCCCCC4)cc3)cccc2cn1`, the IC50 in series [1] came out at 3.8 nM.
Regarding `O=C(NCc1cc(F)c(N2[C@@H]3CC[C@H]2CC2(C3)OCCO2)cc1F)Nc1cccc2[nH]ncc12`, the IC50 in series [1] worked out at 82 nM.
In the case of `O=C(NCc1ccc(N2CCCCCC2)c(C(F)(F)F)c1)Nc1cccc2cnccc12`, the results for the Stability with Liver microsomes [2] and in the series on Liver microsomes [3] were 689 pmol/min/mg and 643 pmol/min/mg, respectively. Moreover, the IC50 in series [1] is 4.6 nM.
For the molecule `O=C(NCc1ccc(N2CCOCC2)cc1)Nc1cccc2cnccc12`, the IC50 in series [1] was 91 nM.
Consider `O=C(NCc1ccc(N2[C@@H]3CCC[C@H]2CC3)c(Cl)c1)Nc1cccc2[nH]ncc12`, for which the IC50 in series [1] turned out to be 20.4 nM.
On to `O=C(NCc1ccc(N2[C@@H]3CCC[C@H]2CC3)cc1Cl)Nc1cccc2[nH]ncc12`, for which the IC50 in [1] turned out to be 58.8 nM.
In the case of `O=C(NCc1ccc(N2[C@@H]3CCC[C@H]2CC3)c(F)c1)Nc1cccc2[nH]ncc12`, the Stability in the series on Liver microsomes [2] was 394 pmol/min/mg; in the series on Liver microsomes [3] it was 516 pmol/min/mg. Moreover, the IC50 in [1] was 14.8 nM.
For `O=C(NCc1ccc(N2CCCCCC2)c(F)c1)Nc1cccc2[nH]ncc12`, the IC50 in [1] was 14.2 nM.
The solubility is the concentration that dissolves in the medium under given conditions. Molecule `O=C(NCc1ccc(N2[C@@H]3CCC[C@H]2CC3)c(C(F)(F)F)c1)Nc1cccc2[nH]ncc12` displayed a Cmax in series [4] of 240 ng/mL. For the same molecule, the Stability in the series on Liver microsomes [2] is recorded as 315 pmol/min/mg; with Liver microsomes [3], 445 pmol/min/mg. Further, the fraction unbound in the series filed under Homo sapiens is 0.03; in [10] it was 0.014. This molecule displayed an ED50 with Rattus norvegicus of 20 µmol/kg. Besides, the IC50 in [11] was more than 5000 nM; at Adenosine receptor A3, more than 5000 nM; in series [1], 26.9 nM; on Translocator protein, more than 5000 nM. This molecule gave a half-life in series [5] of 1.4 h. Moreover, the bioavailability in series [6] worked out at 21%; in series [7], 46%. For the same molecule, in [8], the Vd worked out at 2.1 L/kg. Moreover, the solubility was 14 µg/mL (≈ 31.6 µM) in series [12] and less than 0.001 µg/mL in [13]. The clearance in series [9] was 16.7 mL/min/kg.
